Test results published in US11198710B2, “Transgenic plant having herbicide resistance” (priority 2016, dated 2021).

How the values were obtained:
OsGSTU5 = assay: Pyroxasulfone metabolizing activity based on fatty acid content in cultured rice cells; format: cell-based; settings: cultured rice cells with OsGSTU5 gene; 10^−6 M treatment group
Procedure: (§1) The transgenic cultured rice cells thus prepared were used for liquid culture in the presence of pyroxasulfone. Pyroxasulfone was added to the liquid medium as an acetone solution. The final acetone concentration was 0.1%. When liquid culture was carried out, cultured rice cells transformed with KLB-279 (a plasmid comprising Act1p (rice actin 1 promoter)::sGFP::NOSt incorporated into the MCS of PalSelect R-4) were designated as the control samples. Liquid culture was carried out as described below. […]
(§2) Fatty acid was extracted using undecenoic acid (C11:1) as an internal standard. As analytical standards, Supelco FAME mix containing C14:0, C16:0, C16:1, C18:0, C18:1, C18:2, C18:3, C20:0, C22:0, C22:1, and C24:0 and other fatty acid methyl esters (C11:1, C15:0, C20:1, and C26:0) were used, and calibration curves thereof were prepared, followed by quantification. […] Quantitative and qualitative analyses were carried out as methyl esters, although fatty acid methyl esters were converted into fatty acids at the time of quantitative analysis. […]

OsGSTF5 = assay: as above; format: cell-based; settings: cultured rice cells with OsGSTF5 gene; 10^−6 M treatment group
Procedure: as §1, §2

[1] = test system: wild-type rapeseed plants (variety: Westar); assay: Rapeseed sensitivity test 2 (agar medium), wild type; format: in vivo, Brassica napus; settings: 0.1 μM pyroxasulfone, 22° C., 2 weeks
Description: (§3) In order to investigate the extent of pyroxasulfone resistance of the transgenic rapeseed plants comprising the […] gene introduced therein compared to wild-type plants, the growth of rapeseed was examined in an agar medium containing pyroxasulfone. Wild-type rapeseed plants (variety: Westar) and transgenic rapeseed plants comprising the TaQ8GTC0 gene introduced therein were subjected to the growth inhibitory test in an agar medium, so as to examine the resistance thereof to pyroxasulfone.
(§4) The medium (1 liter) used in the test was composed of 1× Murashige-Skoog (MS) media (a bag), thiamin hydrochloride (3 μg/ml), nicotinic acid (5 μg/ml), pyridoxin hydrochloride (0.5 μg/ml), and 1% (w/v) sucrose. The composition was added to a 1-liter beaker, a pH was adjusted to 5.7, and the volume of the composition was adjusted to 1 liter, followed by the addition of 8 g (0.8%) of agar. Thereafter, the composition was autoclaved, the temperature was cooled to room temperature, and pyroxasulfone (acetone solution) at a given concentration was added. […]
(§5) The sensitivity of rapeseed was examined in agar media comprising pyroxasulfone (0.1 μM, 1 μM, 10 μM, and 100 μM). […] Values in the table in FIGS. 41 and 42 are expressed as the mean±standard deviation (n=4 to 5). Values in FIG. 43 are expressed as the means (n=4 to 5).

[2] = test system: transgenic rapeseed plants comprising the TaQ8GTC0 gene; assay: Rapeseed sensitivity test 2 (agar medium), transgenic; format: in vivo, Brassica napus; settings: 10 μM pyroxasulfone, 22° C., 2 weeks
Description: as §3, §4, §5

SMILES: Cn1nc(C(F)(F)F)c(CS(=O)(=O)C2=NOC(C)(C)C2)c1OC(F)F [Pyroxasulfone, 3-[5-(difluoromethoxy)-1-methyl-3-(trifluoromethyl)pyrazol-4-ylmethylsulfonyl]-4,5-dihydro-5,5-dimethyl-1,2-oxazole]
- pyroxasulfone metabolizing activity (C15:0 and VLCFA contents) (OsGSTU5): no pyroxasulfone metabolizing activity
- pyroxasulfone metabolizing activity (C15:0 and VLCFA contents) (OsGSTF5): no pyroxasulfone metabolizing activity
- inhibition ratio on foliage leaf development [1]: 8.4±1.4%
- inhibition ratio on plant height [1]: 8.9±2.8%
- inhibition ratio on foliage leaf development [2]: 1.2±2.7%
- inhibition ratio on plant height [2]: 7.8±5.9%
